Measurements: patent publication US20070203091A1, “Methods and therapeutic compositions for improving liver, blood flow and skeletal muscle functions in advanced diseases and aging” (priority 2006, published 2007)

Tests used:
[1] = Cachexia markers Part I: serum albumin, pre-albumin, C-Reactive Protein, Phase I study; type: in vivo, human; settings: for C-Reactive Protein, Change from Baseline, Mean / C-Reactive Protein, Change from Baseline, Median / C-Reactive Protein, Observed Values, Mean / C-Reactive Protein, Observed Values, Median / Pre-albumin, Change from Baseline, Mean / Pre-albumin, Change from Baseline, Median / Pre-albumin, Observed Values, Mean / Pre-albumin, Observed Values, Median / Serum Albumin, Change from Baseline, Mean / Serum Albumin, Change from Baseline, Median / Serum Albumin, Observed Values, Mean / Serum Albumin, Observed Values, Median: ITT
Description: The data for albumin, LDH and Bilirubin support claims reciting improvement in liver function by claimed treatment of a human host in need thereof. Serum LDH levels are an established strong independent negative prognostic factor, inversely related to survival in a great variety of adverse clinical conditions. In advanced refractory cancers, high LDH and low Karnofsky's performance status are among the strongest established independent negative prognostic factors of survival and quality of life (29).

[2] = Stability of ATP drug product and infusion solution; type: physicochemical
Experimental: An example of a clinical procedure in the treatment of individuals in need thereof is as follows. After determination of baseline, pre-treatment vital signs, hemodynamic variables and blood chemistry, an ATP dose escalation procedure is initiated. ATP is provided as a sterile solution in single use vials. […] Storage of the clinical solution is at controlled refrigerated temperature (2° C.-6° C.). […] The concentration of the final sterile solution for the infusion is 8 mg/ml.
See attached AAI International Analytical Testing Report Aug. 2, 2001.

[3] = Voluntary (skeletal) muscle strength, hand grip strength, Phase I study; type: in vivo, human; settings: for Skeletal Muscle Strength, Change from Baseline, Mean / Skeletal Muscle Strength, Change from Baseline, Median / Skeletal Muscle Strength, Observed Values, Mean / Skeletal Muscle Strength, Observed Values, Median: ITT
Experimental: Procedure for measuring voluntary (skeletal) muscle strength-hand grip strength • 1. This measurement will be performed in the standing position (without support) using the patients' dominant hand in the horizontal outstretched position of 90 degrees to the body. • 2. Measurements will be taken using a calibrated and well maintained hand-held commercially available dynamometer. • 3. All measurements that are performed during the treatment period will be taken prior to placement of intravenous cannula and prior to study treatment administration • 4. Patients will undertake the hand-grip strength maneuver after initial training—with encouragement from the observer to “do their best”. This will be performed ×3 with no more than 30 seconds between attempts. • 5. The maximal value of the three attempts will be recorded as the hand-grip strength on that day. • 6. The testing will be performed and documented by the same individual member of the research team (as often as is practically possible). • The dynamometer instrument will be to the greatest extent possible the same instrument for any one patient throughout the study and will be initially calibrated and checked for accuracy prior to the study and thereafter on a regular basis. ATP Therapeutics, Inc.

[4] = Week <1 (Screening), baseline, N=15

Q: Which results are given for Nc1ncnc2c1ncn2[C@@H]1O[C@H](COP(=O)(O)OP(=O)(O)OP(=O)(O)O)[C@@H](O)[C@H]1O [ATP, adenosine 5′-triphosphate]?
A: C-Reactive Protein, Change from Baseline, Mean ([1]; Week 10 (Follow-up), N=4): 6.0 mg/dL; C-Reactive Protein, Change from Baseline, Median ([1]; Week 10 (Follow-up), N=4): -0.7 mg/dL; C-Reactive Protein, Observed Values, Mean ([1]; Week 10 (Follow-up), N=4): 11.2 mg/dL; C-Reactive Protein, Observed Values, Median ([1]; Week 10 (Follow-up), N=4): 7.0 mg/dL; Pre-albumin, Change from Baseline, Mean ([1]; Week 10 (Follow-up), N=6): -8.3 mg/dL; Pre-albumin, Change from Baseline, Median ([1]; Week 10 (Follow-up), N=6): -1.0 mg/dL; Pre-albumin, Observed Values, Mean ([1]; Week 10 (Follow-up), N=6): 20.2 mg/dL; Pre-albumin, Observed Values, Median ([1]; Week 10 (Follow-up), N=6): 18.5 mg/dL; Serum Albumin, Change from Baseline, Mean ([1]; Week 10 (Follow-up), N=6): 0.0 g/dL; Serum Albumin, Change from Baseline, Median ([1]; Week 10 (Follow-up), N=6): -0.1 g/dL; Serum Albumin, Observed Values, Mean ([1]; Week 10 (Follow-up), N=6): 3.6 g/dL; Serum Albumin, Observed Values, Median ([1]; Week 10 (Follow-up), N=6): 3.7 g/dL; C-Reactive Protein, Change from Baseline, Mean ([1]; Week 13 (Follow-up), N=5): 5.3 mg/dL; C-Reactive Protein, Change from Baseline, Median ([1]; Week 13 (Follow-up), N=5): 0.0 mg/dL; C-Reactive Protein, Observed Values, Mean ([1]; Week 13 (Follow-up), N=5): 9.1 mg/dL; C-Reactive Protein, Observed Values, Median ([1]; Week 13 (Follow-up), N=5): 0.4 mg/dL; Pre-albumin, Change from Baseline, Mean ([1]; Week 13 (Follow-up), N=5): -8.4 mg/dL; Pre-albumin, Change from Baseline, Median ([1]; Week 13 (Follow-up), N=5): 0.0 mg/dL; Pre-albumin, Observed Values, Mean ([1]; Week 13 (Follow-up), N=5): 22.4 mg/dL; Pre-albumin, Observed Values, Median ([1]; Week 13 (Follow-up), N=5): 24.0 mg/dL; Serum Albumin, Change from Baseline, Mean ([1]; Week 13 (Follow-up), N=6): -0.0 g/dL; Serum Albumin, Change from Baseline, Median ([1]; Week 13 (Follow-up), N=6): -0.1 g/dL; Serum Albumin, Observed Values, Mean ([1]; Week 13 (Follow-up), N=6): 3.5 g/dL; Serum Albumin, Observed Values, Median ([1]; Week 13 (Follow-up), N=6): 3.5 g/dL; levels of C-Reactive Protein ([1]; after 13 weeks): continued to increase; levels of pre-albumin ([1]; after 13 weeks): decreased; serum albumin levels ([1]; after 13 weeks): stabilize and prevent a drop; 3 month stability data ([2]; 3 months under routine storage conditions): remains stable at 3 months under; 15 months stability testing ([2]; refrigerated ATP (5° C.)): 99.7 % of label; stability of the final ATP solutions ([2]; room temperature, infusion solution 8 mg/ml): at least 96 hours; Skeletal Muscle Strength, Change from Baseline, Mean ([3]; Week 1 (Infusion 1), N=6): -1.7 kg; Skeletal Muscle Strength, Change from Baseline, Median ([3]; Week 1 (Infusion 1), N=6): -1.5 kg; Skeletal Muscle Strength, Observed Values, Mean ([3]; Week 1 (Infusion 1), N=6): 38.5 kg; Skeletal Muscle Strength, Observed Values, Median ([3]; Week 1 (Infusion 1), N=6): 35.0 kg; Skeletal Muscle Strength, Change from Baseline, Mean ([3]; Week 2 (Infusion 2), N=14): -1.4 kg; Skeletal Muscle Strength, Change from Baseline, Median ([3]; Week 2 (Infusion 2), N=14): -2.0 kg; Skeletal Muscle Strength, Observed Values, Mean ([3]; Week 2 (Infusion 2), N=14): 34.6 kg; Skeletal Muscle Strength, Observed Values, Median ([3]; Week 2 (Infusion 2), N=14): 34.0 kg; Skeletal Muscle Strength, Change from Baseline, Mean ([3]; Week 4 (Infusion 4), N=11): -4.1 kg; Skeletal Muscle Strength, Change from Baseline, Median ([3]; Week 4 (Infusion 4), N=11): -2.0 kg; Skeletal Muscle Strength, Observed Values, Mean ([3]; Week 4 (Infusion 4), N=11): 31.5 kg; Skeletal Muscle Strength, Observed Values, Median ([3]; Week 4 (Infusion 4), N=11): 32.0 kg; Skeletal Muscle Strength, Change from Baseline, Mean ([3]; Week 8 (Infusion 8), N=7): -2.4 kg; Skeletal Muscle Strength, Change from Baseline, Median ([3]; Week 8 (Infusion 8), N=7): -2.0 kg; Skeletal Muscle Strength, Observed Values, Mean ([3]; Week 8 (Infusion 8), N=7): 30.0 kg; Skeletal Muscle Strength, Observed Values, Median ([3]; Week 8 (Infusion 8), N=7): 26.0 kg; Skeletal Muscle Strength, Change from Baseline, Mean ([3]; Week 10 (Follow-up), N=6): 1.8 kg; Skeletal Muscle Strength, Change from Baseline, Median ([3]; Week 10 (Follow-up), N=6): -3.0 kg; Skeletal Muscle Strength, Observed Values, Mean ([3]; Week 10 (Follow-up), N=6): 33.7 kg; Skeletal Muscle Strength, Observed Values, Median ([3]; Week 10 (Follow-up), N=6): 30.0 kg; Skeletal Muscle Strength, Change from Baseline, Mean ([3]; Week 13 (follow-up), N=4): 6.3 kg; Skeletal Muscle Strength, Change from Baseline, Median ([3]; Week 13 (follow-up), N=4): -1.0 kg; Skeletal Muscle Strength, Observed Values, Mean ([3]; Week 13 (follow-up), N=4): 32.5 kg; Skeletal Muscle Strength, Observed Values, Median ([3]; Week 13 (follow-up), N=4): 26.0 kg; Skeletal Muscle Strength, Change from Baseline, Mean [3, 4]: 0.0 kg; Skeletal Muscle Strength, Change from Baseline, Median [3, 4]: 0.0 kg; Skeletal Muscle Strength, Observed Values, Mean [3, 4]: 35.1 kg; Skeletal Muscle Strength, Observed Values, Median [3, 4]: 35.0 kg; skeletal muscle strength ([3]; beginning at week 8 and up to week 13): stabilize and improve; Skeletal Muscle Strength (voluntary) ([3]; patients 502-505, screening (week <1) to week 8 (last infusion cycle)): Small increase
